Reference: patent US7977366B2, “Treating an inflammatory disorder or inhibiting respiratory burst in adherent neutrophils with chemical inhibitors of neutrophil activation” (Cornell Research Foundation, Inc., priority 2003, dated 2011)
“Also recorded” adds a separate entry of the source. Where two headings read alike, the source gives them in different places.

How the values were obtained:
human neutrophils [1] = assay: TNF-triggered H2O2 release (respiratory burst) by adherent human neutrophils; type: cell-based; details: for IC50: Homo sapiens, Neutrophil, TNF 100 ng/ml; for Concentration that consistently yielded over 95% inhibition on TNF triggered RB: empirically decided for each compound
Method: Contaminating erythrocytes were lysed by hypotonic shock for 45 seconds with 0.2% saline.
Briefly, 15,000 compounds were screened to identify specific inhibitors of TNF-triggered H2O2 release in human neutrophils. H2O2 release was measured as above except a few modifications to adapt to high throughput screening. […] Percent inhibition by each compound was calculated using the formula: […]
Briefly, 96-well flat-bottomed plates (Primaria, Falcon) were coated with 50 μl/well of FBS in 5% CO2 at 37° C. for at least 1 h and washed three times with 0.9% saline. Neutrophils (1.5×10^4) were added to triplicate wells containing 100 μl of reaction mixture (2.4 nm scopoletin, 0.5 μg horseradish peroxidase (HRP), and 1 mM NaN3) and stimulated with either buffer control, TNF (PreproTech, London, UK) or phorbol myristate acetate (PMA), each at 100 ng/ml. […] The supernatant from the H2O2 release assay with 1.5×10^4 neutrophils was used to measure degranulation using lactoferrin (LF) or myeloperoxidase (MPO) ELISA kit (Oxis International, Inc., Portland, Oreg.). Spontaneous cell death from the same supernatant was measured using Cytotoxicity Detection Kit (Roche Molecular Biochemicals, Nutley, N.J.). The total cell content of LF, MPO, and lactate dehydrogenase (LDH) was determined after lysing cells with 1% Triton X100. LDH is a cytosolic enzyme whose release indicates cell lysis, such that high release of LF or MPO in the face of low release of LDH is taken as a measure of degranulation.

human neutrophils [2] = assay: TNF triggered degranulation of neutrophils (lactoferrin and myeloperoxidase release, ELISA); type: cell-based; details: for myeloperoxidase (MPO) release triggered by TNF: marker of azurophil granule; for lactoferrin (LF) release triggered by TNF: marker of specific granule
Method: Respiratory burst was measured as described elsewhere (De la Harpe et al., “A Semi-Automated Micro-Assay for H2O2 Release by Human Blood Monocytes and Mouse Peritoneal Macrophages,” J Immunol Methods 78:323-336 (1985), which is hereby incorporated by reference in its entirety). Briefly, 96-well flat-bottomed plates (Primaria, Falcon) were coated with 50 μl/well of FBS in 5% CO2 at 37° C. for at least 1 h and washed three times with 0.9% saline. Neutrophils (1.5×10^4) were added to triplicate wells containing 100 μl of reaction mixture (2.4 nm scopoletin, 0.5 μg horseradish peroxidase (HRP), and 1 mM NaN3) and stimulated with either buffer control, TNF (PreproTech, London, UK) or phorbol myristate acetate (PMA), each at 100 ng/ml. The reduction of scopoletin by H2O2 was recorded every 15 min on a plate-reading fluorometer until H2O2 release reached plateau and the amount of H2O2 released calculated as described (De la Harpe et al., “A Semi-Automated Micro-Assay for H2O2 Release by Human Blood Monocytes and Mouse Peritoneal Macrophages,” J Immunol Methods 78:323-336 (1985), which is hereby incorporated by reference in its entirety). The supernatant from the H2O2 release assay with 1.5×10^4 neutrophils was used to measure degranulation using lactoferrin (LF) or myeloperoxidase (MPO) ELISA kit (Oxis International, Inc., Portland, Oreg.). Spontaneous cell death from the same supernatant was measured using Cytotoxicity Detection Kit (Roche Molecular Biochemicals, Nutley, N.J.). The total cell content of LF, MPO, and lactate dehydrogenase (LDH) was determined after lysing cells with 1% Triton X100. LDH is a cytosolic enzyme whose release indicates cell lysis, such that high release of LF or MPO in the face of low release of LDH is taken as a measure of degranulation.
To test whether any of these compounds has any role in degranulation, the release of lactoferrin (LF) (as a marker of specific granule) and myeloperoxidase (MPO, as a marker of azurophil granule) were measured in the supernatant. […] The effect of Comp I on LF release was inconclusive due to high background release of LF in non-stimulated cells.

[3] = 1.5 h, H2O2 release at 90 min, read-out: IC50, TNF triggered H2O2 release

Structure (SMILES)	IC50 (human neutrophils [1]; [3])	Concentration that consistently yielded over 95% inhibition on TNF triggered RB (human neutrophils [1])	myeloperoxidase (MPO) release triggered by TNF (human neutrophils [2])	lactoferrin (LF) release triggered by TNF (human neutrophils [2])	effect on TNF triggered H2O2 release (respiratory burst) (human neutrophils [1]; result in words)	degranulation of neutrophils (general statement) (human neutrophils [2])	IC50 (human neutrophils [1]; range given with mixed units nM and μM, read-out: IC50, TNF triggered H2O2 release (very variable))
Cc1nc(N/N=C/c2ccccc2O)c2c3c(sc2n1)CCCC3 [Comp I, 2-[(2-Methyl-5,6,7,8-tetrahydro-benzo[4,5]thieno [2,3-a]pyrimidin-4-yl)-hydrazonomethyl]-phenol]	~180 nM	2 µM	almost complete inhibition	inconclusive			
O=C1CC(c2ccccc2)=NN1c1cccc(Cl)c1 [Comp II, 2-(3-Chloro-phenyl)-5-phenyl-2,4-dihydro-pyrazol-3-one]	1600 ± 400 nM	5 µM	very moderate inhibition	did not block	inhibited	takes place normally; also recorded: sparing	
C(=N\Nc1ncnc2sc3c(c12)CCCC3)/c1cccnc1 [Comp III, N-Pyridin-3-ylmethylene-N-(5,6,7,8-tetrahydro-benzo[4,5] [2,3-a]pyrimidin-4-yl)-hydrazine]	2500 ± 1500 nM	5 µM	almost complete inhibition	partially inhibited			
O=C(CSc1nc2ccccc2s1)N/N=C/c1cc([N+](=O)[O-])ccc1O [Comp IV, (Benzothiazol-2-ylsulfanyl)-acetic acid (2-hydroxy-5-nitro-benzylidene) -hydrazide]		10 µM	almost complete inhibition	partially inhibited			3 to 2000 nM
